Laboratory results: patent US8158172B2, “Fermented food products containing probiotics strains, and method for preparing same” (Compagnie Gervais Danone, priority 2006, dated 2012)

Assays:
Format in all cases: cell-based
[1] = test system: ferment comprising Streptococcus thermophilus (CNCM: I-1630), Lactobacillus delbrueckii ssp. bulgaricus (CNCM: I-1632, I-1519) and Bifidobacterium animalis ssp …; assay: Monitoring of the acidification of the milk product model by the ferment of Example 1; conditions: vitamin C 0.5 g/l, cysteine 50 mg/l; for acidification curve compared with control / vitamin C curve: FIG. 1; for Ta = latency time / Tmax = time at Vmax / TpH 4.8 = time to arrive at pH 4.8 / TpH 5 = time to arrive at pH 5 / TpH 5.5 = time to arrive at pH 5.5 / Vmax = maximum rate / pH 0 = pH at start of fermentation / pHm = pH at the maximum acidification rate: milk model at 37° C.
Protocol: A ferment comprising Streptococcus thermophilus (CNCM: I-1630)+Lactobacillus delbreckii ssp. bulgaricus (CNCM: I-1632)+Lactobacillus delbrueckii ssp. bulgaricus (CNCM: I-1519)+Bifidobacterium animalis ssp lactis (CNCM: I-2494) is used.
The growth of bifidobacteria in milk is measured in the presence of a solution of vitamin C (0.5 g/l) completely reducing the oxygen in the medium, and a solution of cysteine (50 mg/l).
Constitution of the product model:
Milex skimmed milk powder supplied by Arla food: 120 g
Water: quantity sufficient for 1 kg
A heat treatment is carried out involving pasteurization for 30 minutes at 95° C. in a bubbling water bath.
The cysteine is supplied by Sigma. The solution is prepared at 500 g/l, filtered on a 0.2 μm Nalgène filter unit. This solution is used injected sterilely into the pasteurized model for a final concentration of 50 mg/l.
The vitamin C is supplied by Sigma. The solution is prepared at 100 g/l, filtered on a 0.2 μm Nalgène filter unit (cat. 156-4020, Nalge Europe Ltd, Belgium). This solution is used injected sterilely into the pasteurized model for a final concentration of 0.5 g/l.
The seeding is 5.10^6 CFU/ml of Streptococcus thermophilus and 5.10^6 CFU/ml of Lactobacillus bulgaricus.
The monitoring of the acidification of the model at 37° C. is represented in Table 2 below as well as in FIG. 1.

[2] = test system: Bifidobacterium animalis ssp lactis (CNCM: I-2494); assay: Growth of bifidobacteria in milk, quantity at the end of the fermentation (Example 1); conditions: milk model at 37° C.; vitamin C 0.5 g/l, cysteine 50 mg/l
Protocol: A ferment comprising Streptococcus thermophilus (CNCM: I-1630)+Lactobacillus delbreckii ssp. bulgaricus (CNCM: I-1632)+Lactobacillus delbrueckii ssp. bulgaricus (CNCM: I-1519)+Bifidobacterium animalis ssp lactis (CNCM: I-2494) is used. The growth of bifidobacteria in milk is measured in the presence of a solution of vitamin C (0.5 g/l) completely reducing the oxygen in the medium, and a solution of cysteine (50 mg/l). A heat treatment is carried out involving pasteurization for 30 minutes at 95° C. in a bubbling water bath. The cysteine is supplied by Sigma. The solution is prepared at 500 g/l, filtered on a 0.2 μm Nalgène filter unit. This solution is used injected sterilely into the pasteurized model for a final concentration of 50 mg/l. The vitamin C is supplied by Sigma. The solution is prepared at 100 g/l, filtered on a 0.2 μm Nalgène filter unit (cat. 156-4020, Nalge Europe Ltd, Belgium). This solution is used injected sterilely into the pasteurized model for a final concentration of 0.5 g/l. The seeding is 5.10^6 CFU/ml of Streptococcus thermophilus and 5.10^6 CFU/ml of Lactobacillus bulgaricus.

[3] = test system: bifidobacteria (I-2494); assay: Development of the population of bifidobacteria in the model preserved at 4° C., filtered or autoclaved stimulant (Example 4); conditions: 50 mg/l; for effect of the supply on the population of bifidobacteria: filtered or autoclaved, relative to control; for population of bifidobacteria D 10: 10 days after placing in pots; for population of bifidobacteria D 10 / population of bifidobacteria D 24 / population of bifidobacteria D 29 / population of bifidobacteria D 0: preserved at 4° C.; for population of bifidobacteria D 24: 24 days after placing in pots; for population of bifidobacteria D 29: 29 days after placing in pots; for population of bifidobacteria D 0: placing in pots (packaging)
Protocol: The impact of sterilization by filtration or thermization of the cysteine and methionine is assessed (final concentration used: 50 mg/l). The solutions are either filtered at 0.2 μm or autoclaved for 5 minutes at 121° C. then frozen in the form of beads in liquid nitrogen. Constitution of the model: Milex skimmed milk powder supplied by Arla food: 120 g […] Heat treatment: pasteurization for 30 minutes at 95° C. in a bubbling water bath Cysteine: supplier Sigma. The solution is prepared at 500 g/l, filtered on a 0.2 μm Nalgène filter unit or sterilized at 121° C. for 5 minutes by an autoclave controlled by temperature probe ([…] France S.A., reference KL 60/101). This solution is injected sterilely into the pasteurized model for a final concentration of 50 mg/l. […] The solution is prepared at 300 g/l; the filtration or sterilization treatment is identical to that carried out for the cysteine solution. This solution is injected sterilely into the pasteurized model for a final concentration of 50 mg/l. The seeding doses are referred to in Table 3 below. The seeding is 5.10^6 CFU/ml of Streptococcus thermophilus and 5.10^6 CFU/ml of Lactobacillus bulgaricus. The monitoring of the population of bifidobacteria in the model preserved at 4° C. as a function of the various conditions above is represented in FIG. 3 as well as in Table 4 below: The reference time D0 corresponds to placing in pots (packaging).

[4] = test system: ferment comprising Streptococcus thermophilus (CNCM: I-2272, I-2773, I-2130), Lactobacillus delbrueckii ssp. bulgaricus (CNCM: I-1519) and Bifidobacterium …; assay: Acidification kinetics of milk with the ferment of Example 2 (Example 3); conditions: 15 mg/L cysteine versus control without cysteine
Description: A ferment comprising Streptococcus thermophilus (CNCM: I-2272)+Streptococcus thermophilus (CNCM: I-2773)+Streptococcus thermophilus (CNCM: I-2130)+Lactobacillus delbrueckii ssp. bulgaricus (CNCM: I-1519)-+Bifidobacterium animalis ssp lactis (CNCM: I-2494) is used. The ferment described in Example 2 is used.

[5] = test system: bifidobacteria; assay: Populations of bifidobacteria in products with increasing doses of cysteine (Example 7)
Protocol: Different products were prepared with increasing doses of cysteine (see the table below). The control was the standard dairy product containing the ferment.

[6] = test system: Bifidobacterium; assay: Population of bifidobacteria during preservation at 10° C., cysteine incorporated before pasteurization (Example 5)
Protocol: This concentration was assessed on direct incorporation in the model and pasteurized composition (95° C., 30 minutes). The monitoring of the population of bifidobacteria in the product model during preservation at 10° C. is represented in FIG. 4.

[7] = test system: Bifidobacterium animalis ssp lactis (CNCM: I-2494); assay: Population of bifidobacteria in milk models (stirred yogurts) during preservation at 10° C. (Example 2)
Protocol: A ferment comprising Streptococcus thermophilus (CNCM: I-2272)+Streptococcus thermophilus (CNCM: I-2773)+Streptococcus thermophilus (CNCM: I-2130)+Lactobacillus delbrueckii ssp. bulgaricus (CNCM: I-1519)-+Bifidobacterium animalis ssp lactis (CNCM: I-2494) is used. “Milk models” are constituted by standard stirred yogurts comprising the ferment described above. The use of 0.2 μm-filtered cysteine was assessed in the “milk models” in proportions comprised from 5 mg/l to 50 mg/l (preferably from 5 to 20 mg/l). For the bifidobacteria counting method, reference may be made to M. Grand et al., Quantitative analysis and molecular identification of bifidobacteria strains in probiotic milk products, Eur. Food Res. Technol. 217:90-92 (2003).

O=C1O[C@H]([C@@H](O)CO)C(O)=C1O [Vitamin C, vitamin C, reference compound]
acidification curve compared with control / vitamin C curve [1]: virtually indistinguishable from the control acidification curve
Ta = latency time [1]: 86 min
Tmax = time at Vmax [1]: 3.07 h
TpH 4.8 = time to arrive at pH 4.8 [1]: 479 minutes
TpH 5 = time to arrive at pH 5 [1]: 391 minutes
TpH 5.5 = time to arrive at pH 5.5 [1]: 260 minutes
Vmax = maximum rate [1]: −0.0079 pH units/minute
pH 0 = pH at start of fermentation [1]: 6.5
pHm = pH at the maximum acidification rate [1]: 5.96
D 0 CFU/ml = quantity of bifidobacteria obtained at the end of the fermentation [2]: 1.02 · 10^8 CFU/ml

CSCCC(N)C(=O)O [methionine, L-methionine ((S)-2-amino-4-methylthio-butyric acid)]
effect of the supply on the population of bifidobacteria [3]: increased
population of bifidobacteria D 10 ([3]; listed as Filtered methionine): 6.2 · 10^8 CFU/ml
population of bifidobacteria D 24 ([3]; listed as Filtered methionine): 3.4 · 10^8 CFU/ml
population of bifidobacteria D 29 ([3]; listed as Filtered methionine): 2.3 · 10^8 CFU/ml
population of bifidobacteria D 0 ([3]; listed as Filtered methionine): 4.0.10^8 CFU/ml

CSCCC(N)C(=O)O [Autoclaved methionine, L-methionine ((S)-2-amino-4-methylthio-butyric acid)]
population of bifidobacteria D 10 [3]: 3.5 · 10^8 CFU/ml
population of bifidobacteria D 24 [3]: 3.5 · 10^8 CFU/ml
population of bifidobacteria D 29 [3]: 2.8 · 10^8 CFU/ml
population of bifidobacteria D 0 [3]: 3.4.10^8 CFU/ml

N[C@@H](CS)C(=O)O [cysteine, L-cysteine]
effect on the overall acidification kinetics of milk [4]: absence of the effect
Populations (CFU/mL) T0 ([5]; Test 1, cysteine 0.008%): 4.40E+06 CFU/mL
Populations (CFU/mL) Tf 495 min ([5]; Test 1, cysteine 0.008%): 1.70E+08 CFU/mL
Populations (CFU/mL) T0 ([5]; Test 2, cysteine 0.005%): 4.70E+06 CFU/mL
Populations (CFU/mL) T pH 4.8 ([5]; Test 2, cysteine 0.005%): 1.90E+08 CFU/mL
Populations (CFU/mL) Tf 495 min ([5]; Test 2, cysteine 0.005%): 2.40E+08 CFU/mL
Populations (CFU/mL) T0 ([5]; Test 3, cysteine 0.002%): 3.30E+06 CFU/mL
Populations (CFU/mL) T pH 4.8 ([5]; Test 3, cysteine 0.002%): 2.50E+08 CFU/mL
Populations (CFU/mL) Tf 495 min ([5]; Test 3, cysteine 0.002%): 3.10E+08 CFU/mL
Populations (CFU/mL) T0 ([5]; Test 5, cysteine 0.001%): 3.10E+06 CFU/mL
Populations (CFU/mL) T pH 4.8 ([5]; Test 5, cysteine 0.001%): 1.50E+08 CFU/mL
Populations (CFU/mL) Tf 495 min ([5]; Test 5, cysteine 0.001%): 2.40E+08 CFU/mL
Populations (CFU/mL) T0 ([5]; Test 6, cysteine 0.0005%): 3.90E+06 CFU/mL
Populations (CFU/mL) T pH 4.8 ([5]; Test 6, cysteine 0.0005%): 1.10E+08 CFU/mL
Populations (CFU/mL) Tf 495 min ([5]; Test 6, cysteine 0.0005%): 1.20E+08 CFU/mL
population of Bifidobacterium after 44 days of preservation at 10° C. ([6]; 12 mg/l cysteine incorporated before pasteurization (95° C., 30 minutes)): above 1.4.10^8 CFU/ml
population of Bifidobacterium at D1 (24 hours of storage) ([6]; 12 mg/l cysteine incorporated before pasteurization (95° C., 30 minutes), 10° C.): 2.4.10^8 CFU/ml
population of Bifidobacterium on addition of 0.2 μm filtered cysteine to the model ([6]; filtered cysteine, not heat treated (comparison)): 3.10^8 CFU/ml
acidification curve compared with control / vitamin C curve [1]: differs from the acidification curve in the presence of vitamin C
Ta = latency time [1]: 90 min
Tmax = time at Vmax [1]: 3.47 h
TpH 4.8 = time to arrive at pH 4.8 [1]: 417 minutes
TpH 5 = time to arrive at pH 5 [1]: 354 minutes
TpH 5.5 = time to arrive at pH 5.5 [1]: 248 minutes
Vmax = maximum rate [1]: −0.01046 pH units/minute
pH 0 = pH at start of fermentation [1]: 6.6
pHm = pH at the maximum acidification rate [1]: 5.82
D 0 CFU/ml = quantity of bifidobacteria obtained at the end of the fermentation [2]: 2.79 · 10^8 CFU/ml
effect of the supply on the population of bifidobacteria [3]: increased
population of bifidobacteria D 10 ([3]; listed as Filtered cysteine): 4.3 · 10^8 CFU/ml
population of bifidobacteria D 24 ([3]; listed as Filtered cysteine): 4.0 · 10^8 CFU/ml
population of bifidobacteria D 0 ([3]; listed as Filtered cysteine): 5.1.10^8 CFU/ml
Bifidobacterium I-2494 population after 28 days of preservation at 10° C. ([7]; 0.0015% i.e. 15 mg/l of filtered cysteine): 2.8.10^8 CFU/ml
Bifidobacterium population ([7]; dose of 0.0015% cysteine): > 2.10^8 CFU/ml
population of bifidobacteria after preservation for up to 28 days at 10° C. ([7]; highest concentration of L cysteine (range 5 mg/l to 50 mg/l)): remains stable
population of bifidobacteria at D+24 h ([7]; highest concentration of L cysteine (range 5 mg/l to 50 mg/l), 0.2 μm-filtered): 3.10^8 CFU/ml
population of bifidobacteria at D+24 h ([7]; lowest concentration of L cysteine (range 5 mg/l to 50 mg/l)): 1.10^8 CFU/ml

N[C@@H](CS)C(=O)O [Autoclaved cysteine, L-cysteine]
population of bifidobacteria D 10 [3]: 5.2.10^8 CFU/ml
population of bifidobacteria D 24 [3]: 2.8.10^8 CFU/ml
population of bifidobacteria D 29 [3]: 1.7.10^8 CFU/ml
population of bifidobacteria D 0 [3]: 3.1 · 10^8 CFU/ml
